Measured values reported in patent US20100016244A1, “D-GLUCOPYRANOSE 1-[3,5-BIS (1,1-DIMETHYLETHY)-4-HYDROXYBENZOATE] AND ITS DERIVATIVES, PREPARATION AND USE THEREOF” (priority 2006, published 2010).
Converted amounts (≈) assume the structure as drawn.

Tests used:
enveloped-viruses = assay: Active concentration on enveloped-viruses; details: BHT versus RDW 031
[1] = Solubility in water (tests 1-3); details: for pH: after stirring for 48 H at 23° C. in water
[2] = tested on: VHS (Herpes Simplex Virus); details: from FR 2 668 931; cited from earlier work
HIV [3] = tested on: HIV
HIV [4] = details: cited from earlier work
[5] = Studies on rats (progeny, mutagenic effect)
[6] = tested on: VHS (Herpes Simplex Virus); assay: Virucidal activity on VHS (Herpes Simplex Virus), decrease in log by concentration and contact time; details: for Decrease expressed in log: test n° 4
Protocol: Results of the tests conducted in the laboratory of Prof. Chiron, (Faculty of Pharmacy of Tours): [table] hypothesis: 10 mg/8 ml (solubility check) Stock-solution: 33.47 mg/24.10 ml (x 1.11 C) i.e.: 11.11 mg/8 ml [table]

physchem = details: water, thermodynamic from solid

Compound: Cc1cc(C(C)(C)C)c(O)c(C(C)(C)C)c1 [BHT, butylhydroxytoluene]
- molar active concentration relative to RDW 031 (enveloped-viruses): 100 times

Compound: CC(C)(C)c1cc(C(=O)O)cc(C(C)(C)C)c1O [BG4, 3,5-di-t-butyl-4-hydroxybenoic acid]
- Solubility 12 H at 23° C. ([1]; Test No 2, water, RDW031 batch RV 34): insoluble
- Solubility after stirring for 48 H at 23° C. ([1]; Test no 3, 1 g + 100 ml H2O, RDW031 batch RV 41, BG4 from SIGMA-ALDRICH): 130 µg/mL
- pH ([1]; Test no 3): pH = 5.6
- Solubilité ½ H à 23° c. ([1]; water, ½ H at 23° C.): No measurable
- Solubility ½ H at 100° C. ([1]; water, ½ H at 100° C., no desolubilization at room temperature): 0.84 g/litre (no
- concentration required for effectiveness on VHS [2]: 0.5%
- reduction of the virulence of a HIV culture (HIV [3]): 5 log

Compound: CC(C)(C)c1cc(C(=O)OCCOCCOCCOCCOCCOCCOCCOCCO)cc(C(C)(C)C)c1O [AVF1, 3.5-di-tert-butyl-4-hydroxybenzoate octa-oxy-ethylene glycol]
- decrease of HIV's infectivity (HIV [4]): 7 log

Compound: CC(C)(C)c1cc(C(=O)OC2O[C@H](CO)[C@@H](O)[C@H](O)[C@H]2O)cc(C(C)(C)C)c1O (stereo partly drawn) [RDW031]
- pH ([1]; Test no 3): pH = 5.9
- effects on progeny and mutagenic effect [5]: never shown any detectable effects
- active concentration, starting [6]: ≥ 0.0625%
- Reduction expressed in log ([6]; 0.00125 mg/ml (1/1000), contact time 120 min): 0.31 log
- Reduction expressed in log ([6]; 0.00250 mg/ml (1/500), contact time 60 min): 1.06 log
- Reduction expressed in log ([6]; 0.00250 mg/ml (1/500), contact time 120 min): 1.15 log
- Reduction expressed in log ([6]; 0.00625 mg/ml (1/200), contact time 60 min): 1.06 log
- Reduction expressed in log ([6]; 0.02500 mg/ml (1/50), contact time 30 min): 0.31 log
- Reduction expressed in log ([6]; 0.06250 mg/ml (1/20), contact time 30 min): 0.21 log
- Reduction expressed in log ([6]; 0.25000 mg/ml (⅕), contact time 15 min): 0.00 log
- Reduction expressed in log ([6]; 0.62500 mg/ml (½), contact time 15 min): 3.68 log
- active concentration expressed ([6]; converted from % concentration): ≥ 0.0015 mol
- Decrease expressed in log ([6]; 0.17028 mg/ml (⅕), contact time 15 min): 0.00 log
- Decrease expressed in log ([6]; 0.17028 mg/ml (⅕), contact time 30 min): 0.00 log
- Decrease expressed in log ([6]; 0.17028 mg/ml (⅕), contact time 60 min): 0.00 log
- Decrease expressed in log ([6]; 0.17028 mg/ml (⅕), contact time 120 min): 0.00 log
- Decrease expressed in log ([6]; 0.42570 mg/ml (½), contact time 60 min): 0.00 log
- Decrease expressed in log ([6]; 0.42570 mg/ml (½), contact time 120 min): 1.48 log
- Decrease expressed in log ([6]; 0.85140 mg/ml (pur), contact time 15 min): 1.25 log
- Decrease expressed in log ([6]; 0.85140 mg/ml (pur), contact time 30 min): 1.86 log
- Decrease expressed in log ([6]; 0.85140 mg/ml (pur), contact time 60 min): 2.15 log
- Decrease expressed in log ([6]; 0.85140 mg/ml (pur), contact time 120 min): 2.32 log
- solubility at 0.5 h (physchem; 23 °C): 40 µg/mL (≈ 97 µM)
- solubility at 12 h (physchem; 23 °C): 1200 µg/mL (≈ 2910 µM)
- solubility at 0.5 h (physchem; 100 °C): 1080 µg/mL (≈ 2620 µM)
- reduction of the virulence of a HIV culture (HIV [3]): 5 log
- effect on polio virus (naked-virus) (polio virus): no effect
